Converted amounts (≈) assume the structure as drawn. Like-named read-outs stand apart in the source and are kept apart here.
How the values were obtained:
Experiment in all cases: Antibacterial activity, standard method of Japan Society of Chemotherapy (MIC)
Type in all cases: cell-based
Ser. marcescens, 10100 = test system: Ser. marcescens, 10100
Method: (§1) The following Inventive and Reference Examples are provided to further illustrate the present invention, but not by way of limitation. The antibacterial activity of optically active compounds of interest was tested in accordance with the standard method designated by Japan Society of Chemotherapy. The results are shown in Table 1 as MIC (μg/ml). [drawing 10]

Str. pyogenes, G-36 = test system: Str. pyogenes, G-36
Method: as §1

S. aureus, 87037 = test system: S. aureus, 87037
Method: as §1

[1] = test system: Ps. maltophilia, IID-1275
Method: as §1

[2] = test system: Str. faeccalis, ATCC-19433
Method: as §1

S. aureus, 209P = test system: S. aureus, 209P
Method: as §1

Pr. mirabilis, IFO-3849 = test system: Pr. mirabilis, IFO-3849
Method: as §1

Ps. aeruginosa, 32121 = test system: Ps. aeruginosa, 32121
Method: as §1

S. epidermidis, 56500 = test system: S. epidermidis, 56500
Method: as §1

Pr. vulgaris, 08601 = test system: Pr. vulgaris, 08601
Method: as §1

S. flexneri, 2A 5503 = test system: S. flexneri, 2A 5503
Method: as §1

E. coli, NIHJ = test system: E. coli, NIHJ
Method: as §1

Ps. aeruginosa, 32104 = test system: Ps. aeruginosa, 32104
Method: as §1

[3] = Serratia marcescens, read-out: MIC
[4] = Streptococcus pyogenes, G36, Str. pyogenes, read-out: MIC
[5] = Staphylococcus aureus, 87037, S. aureus, read-out: MIC
[6] = Stenotrophomonas maltophilia, IID1275, Ps. maltophilia, read-out: MIC
[7] = Staphylococcus aureus, read-out: MIC
[8] = Proteus mirabilis, IFO3849, Pr. mirabilis, read-out: MIC
[9] = Pseudomonas aeruginosa, read-out: MIC
[10] = Staphylococcus epidermidis, 56500, S. epidermidis, read-out: MIC
[11] = Shigella flexneri, 2A5503, read-out: MIC
[12] = Escherichia coli, read-out: MIC
[13] = Pseudomonas aeruginosa, 32104, Ps. aeruginosa, read-out: MIC
[14] = Proteus vulgaris, 08601, Pr. vulgaris, read-out: MIC

Row | SMILES | MIC (Ser. marcescens, 10100; [3]) | MIC (Str. pyogenes, G-36; [4]) | MIC (S. aureus, 87037; [5]) | MIC [1, 6] | MIC ([2]; read-out: MIC) | MIC (S. aureus, 209P; [7]) | MIC (Pr. mirabilis, IFO-3849; [8]) | MIC (Ps. aeruginosa, 32121; [9]) | MIC (S. epidermidis, 56500; [10]) | MIC (Pr. vulgaris, 08601; Pr. vulgaris) | MIC (S. flexneri, 2A 5503; [11]) | MIC (E. coli, NIHJ; [12]) | MIC (Ps. aeruginosa, 32104; [13]) | MIC (Ser. marcescens, 10100) | MIC (Str. pyogenes, G-36; Str. pyogenes) | MIC (S. aureus, 87037; S. aureus) | MIC ([1]; Ps. maltophilia) | MIC [2] | MIC (S. aureus, 209P) | MIC (S. epidermidis, 56500; S. epidermidis) | other results
1 | Nc1c(F)c(N2CCC3(CC3N)C2)c(F)c2c1c(=O)c(C(=O)O)cn2[C@@H]1C[C@@H]1F (single isomer, unassigned) [Example 1] | 0.025 µg/mL (≈ 0.0612 µM) | 0.013 µg/mL (≈ 0.0318 µM) | 0.05 µg/mL (≈ 0.122 µM) | 0.025 µg/mL (≈ 0.0612 µM) | 0.025 µg/mL (≈ 0.0612 µM) | ≤ 0.003 µg/mL | 0.013 µg/mL (≈ 0.0318 µM) | 0.025 µg/mL (≈ 0.0612 µM) | ≤ 0.003 µg/mL | 0.006 µg/mL (≈ 0.0147 µM) | ≤ 0.003 µg/mL | ≤ 0.003 µg/mL | 0.025 µg/mL (≈ 0.0612 µM) | – | – | – | – | – | – | – | –
2 | Nc1c(F)c(N2CCC3(CC3N)C2)c(F)c2c1c(=O)c(C(=O)O)cn2[C@@H]1C[C@@H]1F (single isomer, unassigned) [Example 4] | – | – | – | – | – | – | – | – | – | 0.013 µg/mL (≈ 0.0318 µM) | – | – | – | 0.025 µg/mL (≈ 0.0612 µM) | 0.013 µg/mL (≈ 0.0318 µM) | 0.05 µg/mL (≈ 0.122 µM) | 0.025 µg/mL (≈ 0.0612 µM) | 0.025 µg/mL (≈ 0.0612 µM) | ≦0.003 μg/ml | ≦0.003 μg/ml | MIC (Pr. mirabilis, IFO-3849; Pr. mirabilis): 0.025 µg/mL (≈ 0.0612 µM); MIC (Ps. aeruginosa, 32121): 0.025 µg/mL (≈ 0.0612 µM); MIC (S. flexneri, 2A 5503): ≦0.003 μg/ml; MIC (E. coli, NIHJ): ≦0.003 μg/ml; MIC (Ps. aeruginosa, 32104; Ps. aeruginosa): 0.05 µg/mL (≈ 0.122 µM)
3 | Cc1c(N2CCC3(CC3N)C2)c(F)c(N)c2c(=O)c(C(=O)O)cn([C@@H]3C[C@@H]3F)c12 (single isomer, unassigned) [Example 5] | 0.05 µg/mL (≈ 0.124 µM) | 0.05 µg/mL (≈ 0.124 µM) | 0.1 µg/mL (≈ 0.247 µM) | 0.05 µg/mL (≈ 0.124 µM) | 0.05 µg/mL (≈ 0.124 µM) | ≤ 0.003 µg/mL | 0.05 µg/mL (≈ 0.124 µM) | 0.025 µg/mL (≈ 0.0618 µM) | 0.013 µg/mL (≈ 0.0321 µM) | – | ≤ 0.003 µg/mL | ≤ 0.003 µg/mL | 0.05 µg/mL (≈ 0.124 µM) | – | – | – | – | – | – | – | MIC (Pr. vulgaris, 08601; [14]): 0.013 µg/mL (≈ 0.0321 µM)
4 | Cc1c(N2CCC3(CC3N)C2)c(F)cc2c(=O)c(C(=O)O)cn([C@@H]3C[C@@H]3F)c12 (single isomer, unassigned) [Example 6] | 0.025 µg/mL (≈ 0.0642 µM) | – | – | 0.05 µg/mL (≈ 0.128 µM) | 0.05 µg/mL (≈ 0.128 µM) | ≤ 0.003 µg/mL | 0.013 µg/mL (≈ 0.0334 µM) | 0.025 µg/mL (≈ 0.0642 µM) | – | – | ≤ 0.003 µg/mL | ≤ 0.003 µg/mL | 0.05 µg/mL (≈ 0.128 µM) | – | 0.013 µg/mL (≈ 0.0334 µM) | 0.10 µg/mL (≈ 0.257 µM) | – | – | – | 0.013 µg/mL (≈ 0.0334 µM) | MIC (Pr. vulgaris, 08601; [14]): ≤ 0.003 µg/mL
5 | Cc1c(N2CCC3(CC3N)C2)c(F)cc2c(=O)c(C(=O)O)cn([C@@H]3C[C@@H]3F)c12 (single isomer, unassigned) [Example 7] | – | – | – | – | – | – | – | – | – | ≦0.003 μg/ml | – | – | – | 0.025 µg/mL (≈ 0.0642 µM) | 0.006 µg/mL (≈ 0.0154 µM) | 0.25 µg/mL (≈ 0.642 µM) | 0.025 µg/mL (≈ 0.0642 µM) | 0.025 µg/mL (≈ 0.0642 µM) | ≦0.003 μg/ml | 0.006 µg/mL (≈ 0.0154 µM) | MIC (Pr. mirabilis, IFO-3849; Pr. mirabilis): 0.013 µg/mL (≈ 0.0334 µM); MIC (Ps. aeruginosa, 32121): 0.025 µg/mL (≈ 0.0642 µM); MIC (S. flexneri, 2A 5503): ≦0.003 μg/ml; MIC (E. coli, NIHJ): ≦0.003 μg/ml; MIC (Ps. aeruginosa, 32104; Ps. aeruginosa): 0.05 µg/mL (≈ 0.128 µM)

From US6469023B1, “Heterocyclic spiro-derivative” (Daiichi Pharmaceutical Co., Ltd., priority 1995, dated 2002)
